Patent US11168052B2, “Carbamate derivative compounds, processes for preparing them and their uses” (BIO-PHARM SOLUTIONS CO., LTD., priority 2016, dated 2021)

Legend:
[1] = tested on: MES (electroshock) seizure in rats; assay: Anti-epilepsy activity, MES test in rats; assay type: in vivo, SD rats; conditions: for ED50: Rattus norvegicus, po; for MES test (po) efficacy %: dose 10 mg/kg
Experimental: (§1) In the MES test (Ref., G. Villetti et al. Neuropharmacology 40(2001) 866-878), an electrical stimulus (mice: 50 mA, 60 Hz, 0.2 sec, and rats: 150 mA, 60 Hz, 0.2 sec in the test animal) supplied by an 11A Shocker (IITC Life Science Company) was delivered through corneal electrodes. All mice or rats assigned to any electroshock at peak time were treated with each test compound sample which was dissolved in 20% tween 80 prepared by saline solvent applied orally before the test. […] Three doses of the test sample were administered orally to 9-18 animals (3-6 mice per dose) for evaluating the respective doses at which 50% of the animals were protected from seizure (ED50). The ED50 value (median effective dose) was calculated by Litchfield and Wicoxon log-probit method which is a dose-response relationship. Experimental animals, male ICR mice and male SD rats, were purchased from OrientBio, Samtako, or Nara Biotech, Korea, and housed in cages (4-5 mice or 3 rats per cage) for 4-5 days. The range of mice body weight was between 19 and 25 grams and range of rats body weight was between 100 and 130 grams.

[2] = tested on: MES (electroshock) seizure in mice; assay: Anti-epilepsy activity, MES test in mouse; assay type: in vivo, ICR mice
Experimental: as §1

[3] = tested on: CFA-induced pain model in rats; assay: Antiallodynic activity on Complete Freund's Adjuvant (CFA)-induced inflammatory pain model; assay type: in vivo, Sprague-Dawley rats; conditions: 50 mg/kg intraperitoneally, von Frey threshold relative to sham, 0.5 hr after administration; for response vs control in vivo at 50 mg/kg: Rattus norvegicus, ip, read-out: Efficacy of 50 mg/kg(%)
Experimental: Male, Sprague-Dawley rats (210-250 g, Nara Bio, Korea) were habituated for 1 week before surgery and allowed free access to food and water throughout the experimentation. Room temperature and humidity were maintained at 24±2 and 50±10%, respectively.
CFA-induced inflammatory pain was induced by the procedure of Nagakura et al. (2003) and Gregory P. et al. (2010) with minor modifications. CFA (sigma, USA) was injected in the right plantar with a 100 ul volume under gaseous anesthesia with isoflurane. Sham controls were injected with 100 ul of saline, and preparation of the vehicle controls were identical to the group treated with compound, except for administration of vehicles without indentical to the vihecle control group.
Tactile sensitivity (Mechanical allodynia) was evaluated using von Frey monofilaments before and after treatment, and animals were include in the study only if the withdrawal threshold value was less than 4 g. One week after CFA injection, CFA-infused animals, sham-operated animal, and vehicle-operated animals were tested for tactile sensitivity with von Frey monofilaments, with 3 trials for each animal. All Animals were placed in a stainless steel mashe chamber and habituated for 30 min in the test cage. The tactile sensitivity for ipsilateral hind paw was measured using the up-and-down method (Dixon, 1980) with seven von Frey monofilaments (0.4, 1, 2, 4, 6, 8, and 15 g) to 3 trials. The tactile sensitivity test was followed by Dixon's method (Dixon, 1980). The 50% paw withdrawal threshold for each paw was calculated using the following formula: [Xth]log=[vFr]log+ky where [vFr] is the force of the last von Frey used, k=0.2249 which is the average interval (in log units) between the von Frey monofilaments, and y is a value that depends upon the pattern of withdrawal responses (Dixon, 1980).
Antiallodynic effect of compounds was evaluated at the dose of 50 mg/kg (n=4-6), intraperitoneally administrated in a volume of 5 ul/g bw in a vehicle of 30% (v/v) PEG or 20% (v/v) Tween 80. The test was performed peak time of efficacy (0.5 hr) after compound administration.
The relative values compared to the sham (% control) were calculated and shown in Table 5, which show an antiallodynic effect of Compound 1 on CFA-induced pain model in rats.

[4] = tested on: PTZ (Pentylenetetrazol)-induced clonic seizure in mice; assay: Anti-epilepsy activity, scPTZ test in mouse; assay type: in vivo, ICR mice
Text: (§2) In this experiment, each test compound sample was formulated as described in Biological Experimental Example 1, and administered intraperitoneally to the test animals (mice; ICR or Rat; SD); Experimental animals, male ICR mice and male SD rats, were purchased from OrientBio or Nara biotech, Korea, and housed 4-5 mice per a cage for 4-5 days. The range of mice body weight was used between 19 and 26 grams and range of rats body weight was used between 100 and 130 grams. After Peak time (0.5, 1, 2 and 4 hr) from the administration, PTZ (Pentylenetetrazol) was administered subcutaneously in the concentration capable of inducing 97% intermittent convulsions (mice: 100-110 mg/kg?bw, 10 μl/g, or rats: 90-110 mg/kg?bw, 2 μl/g). If clonic seizure was not observed for at least 30 minutes in the PTZ administered animal, it can be considered that the test compound has anti-epilepsy activity. The median effective dose (ED50) is determined using 6 animals per a concentration (total three different concentrations), and calculated by Litchfield and Wicoxon log-probit method which is a dose-response relationship.

[5] = tested on: Lithium-pilocarpine induced seizure in rats; assay: Lithium-pilocarpine induced epilepsy test (LI-PILO), prevention test; assay type: in vivo, Sprague-Dawley rats; conditions: i.p.
Experimental: Male Sprague-Dawley rats (purchased from Orient Bio Inc. Korea) of body weight 175 grams were used for these studies and 3 rats per cage were housed for 4-5 days. On the day prior to SE, rats received 127 mg/kg lithium chloride (Sigma, St. Louis, Mo., U.S.A.) intraperitoneally (i.p.). Approximately 18-20 h following this treatment, rats were given an i.p. injection of the concentration capable of inducing 97% intermittent convulsions pilocarpine(Sigma, 30-43 mg/kg). An i.p. injection of 2 mg/kg methyl-scopolamine (Sigma) was administered 30 min prior to pilocarpine to block the effects of the muscarinic agonist on peripheral cholinergic receptors. Test drugs were dissolved in 20% tween80 (Sigma).
The drugs were administered intraperitoneally (i.p.) in a volume of 2 μl/g body weight. Pharmacological effects of all of the test materials were evaluated to compare test groups (n=6) with a control group (n=6). Control group was administered vehicle only. The efficacy was measured 0.5, 1, 2, or 4 hours after the administration of the test material. The time point that the most animals were protected was defined as peak time and the ED50 was determined at peak time. The animals were then transferred to observation cages and observed continuously for 90 min Seizure was elicited in approximately 95% of the control group. Protection was defined as complete absence of seizure grade 3-5 (Racine scale; Racine, 1972) over the 90-min observation period. The effective dose of the compound necessary to protect 50% of the animals against seizures compared to controls (i.e., ED50) was determined by a curve fitting program (Excel 2007, Microsoft).

[6] = tested on: PTZ (Pentylenetetrazol)-induced clonic seizure in rats; assay: Anti-epilepsy activity, scPTZ test in rats; assay type: in vivo, SD rats
Text: as §2

[7] = tested on: acetic acid-induced writhes in ICR mice; assay: Writhing test (acetic acid); assay type: in vivo; conditions: Mus musculus, po
Experimental: To examine the pain relief effect of the carbamate compounds, a writhing test was conducted, referring to Fischer, L. G. et al. (2008).
ICR mice (male, 24-28g; Orient Bio, Korea) were habituated before test (in test room) for 1 hour. Animals were fasted 2 hr before administration of compounds. Each of compounds was orally administered at the three dose, 10 ul/g, bw (n=3-5/group). All compounds were dissolved in a vehicle of 30% (v/v) PEG 400 or 20% (v/v) Tween 80. The control group was treated the vehicle without compounds.
0.2-2 hour after the administration of compounds, 0.6% acetic acid at the dose of 10 ul/g by bodyweight was injected into the mice Animals were habituated in the cage for 5 min. 5 min after habituation, the number of writhes (abdominal constriction) was counted for 15 min, referring to Korzeniewska-Rybicka, I. et al. (1998) and compared with that of a control.
The relative values compared to the control (% control) were calculated and shown in […]

[8] = tested on: ICR mice, tail-flick analgesia meter; assay: Tail-flick test; assay type: in vivo; conditions: orally, withdrawal latency
Experimental: To examine the pain relief effect of the carbamate compounds, a tail-flick test was conducted, referring to Current Protocols in Neuroscience; Behavioral Neuroscience Unit 8.9.
ICR mice (male, 25-30g; Orient Bio, Korea) were habituated before test (in test room) for 1 hour. Animals were fasted 2 hr before administration of compounds. Each of Compound was orally administered at the 1-3 dose, 10 ul/g, by bodyweight (n=4-6/group). All compounds were dissolved in a vehicle of 30% (v/v) PEG 400 or 20% (v/v) Tween 80. The control group was treated the vehicle without compounds.
After the administration of compounds, the mice tail were put on a tail-flick analgesia meter. To avoid tissue damage, maximal exposure time to pain stimuli was restricted to 15 s. The withdrawal latency was measured to the time to the point when each mouse responded. The relative values compared to the control (% control) were calculated.
The relative values compared to the sham were calculated and shown in Table 7, which show effect of the compound of examples on tail-flick test in Mice.

[9] = po, read-out: MES test (po) efficacy %

Molecule | response vs control in vivo at 50 mg/kg [3] [%] | ED50 [1] [mg/kg] | Lithium pilocarpine model (pre) efficacy % ([5]; dose 100 mg/kg) [%] | ED50 ([2]; po) [mg/kg] | also measured
8-chloro-1-hydroxy-1,2,3,4-tetrahydronaphthalen-2-yl carbamate (mixture of SR & RS) [Example 3] |  |  |  |  | MES test (po) ED50 [1]: 12.1 mg/kg; MES test (po) ED50 [2]: 27.3 mg/kg; Efficacy of 50 mg/kg(%) [3]: 22.9%; PTZ test (ip) ED50 [4]: 25.2 mg/kg
NC(=O)O[C@H]1CCc2cccc(Cl)c2[C@@H]1O [Example 5, (1S, 2S)-8-chloro-1-hydroxy-1,2,3,4-tetrahydronaphthalen-2-yl carbamate] | 30 |  |  |  | responders at 100 mg/kg [2, 9]: 100%; PTZ test (ip) efficacy % ([4]; dose 100 mg/kg): 100(16.6%)
NC(=O)O[C@@H]1CCc2cccc(F)c2[C@@H]1O [Example 10, (1S, 2R)-8-fluoro-1-hydroxy-1,2,3,4-tetrahydronaphthalen-2-yl carbamate] | 35.2 | 17.5 | 66.6 |  | responders at 100 mg/kg [2, 9]: 100%
NC(=O)O[C@H]1c2c(Cl)cccc2CC[C@H]1O [Example 18, (1S, 2R)-8-chloro-2-hydroxy-1,2,3,4-tetrahydronaphthalen-1-yl carbamate] | 50.2 | 18.8 | 16.6 | 45.8 | scPTZ test (ip) efficacy % ([6]; dose 50 mg/kg): 50 (33.3%,; ED50 [7]: 55.6 mg/kg
NC(=O)O[C@H]1c2c(F)cccc2CC[C@H]1O [Example 25, (1S, 2R)-8-fluoro-2-hydroxy-1,2,3,4-tetrahydronaphthalen-1-yl carbamate] |  |  |  |  | MES test (po) efficacy % [1]: 33.3%; responders at 50 mg/kg ([2]; po, dose 50 mg/kg, read-out: MES test (po) efficacy %): 75%; Lithium pilocarpine model (pre) efficacy % ([5]; dose 10 mg/kg): 33.3%
NC(=O)O[C@@H]1Cc2cccc(Cl)c2[C@@H]1O [Example 51, (1S, 2R)-7-chloro-1-hydroxy-2,3-dihydro-1H-inden-2-yl carbamate] | 40.1 | 17.1 |  | 37 | scPTZ test (ip) efficacy % ([6]; dose 100 mg/kg): 100 (33.3%,
NC(=O)O[C@H]1Cc2cccc(Cl)c2[C@@H]1O [Example 54, (1S, 2S)-7-chloro-1-hydroxy-2,3-dihydro-1H-inden-2-yl carbamate] |  |  | 83.3 | 26.7 | MES test (po) efficacy % [1]: 33.3%; Tail-flick test Dose [8]: >200 mg/kg
NC(=O)O[C@@H]1Cc2cccc(F)c2[C@@H]1O [Example 55, (1S, 2R)-7-fluoro-1-hydroxy-2,3-dihydro-1H-inden-2-yl carbamate] | 34.4 |  | 33.3 | 51.9 | 
NC(=O)O[C@H]1c2c(Cl)cccc2C[C@H]1O [Example 63, (1S, 2R)-7-chloro-2-hydroxy-2,3-dihydro-1H-inden-1-yl carbamate] | 53.1 | 19.1 |  | 51.9 | scPTZ test (ip) efficacy % ([6]; dose 100 mg/kg): 100 (83.3%,
NC(=O)O[C@@H]1c2c(Cl)cccc2C[C@@H]1O [Example 64, (1R, 2S)-7-chloro-2-hydroxy-2,3-dihydro-1H-inden-1-yl carbamate] | 43.7 | 17.8 | 50 | 48.4 | scPTZ test (ip) efficacy % ([6]; dose 50 mg/kg): 50%; Tail-flick test Dose [8]: >200 mg/kg
